Values after ≈ are worked out from the molar mass of the structure shown. Where two headings read alike, the source gives them in different places.
Key:
[1] = test system: Aspergillus flavus; test: Expanded fungus panel, broth macrodilution (MIC/MFC), mold; type: cell-based; conditions: for MIC: Aspergillus flavus, 100% of inoculum inhibited
[2] = test system: Aspergillus fumigatus; test: Antifungal broth macrodilution susceptibility testing (MIC/MFC), mold; type: cell-based; conditions: for MIC80: 80% of inoculum inhibited
[3] = test system: M. tuberculosis H37Rv; test: Microplate Alamar Blue Assay (MABA) in BACTEC 12B medium; type: cell-based, Mycobacterium tuberculosis; conditions: Mycobacterium tuberculosis, H37RV; lowest concentration effecting ≧90% reduction of fluorescence; read-out: MTb MIC
[4] = test system: d(CGCGAATTCGCG)2; test: DNA thermal melting (ΔTm); type: binding; conditions: oligo = d(CGCGAATTCGCG)2
[5] = test system: Rhizopus arrhizus; test: Expanded fungus panel, broth macrodilution (MIC/MFC), mold; type: cell-based
[6] = test system: Fusarium solani; test: as above; type: cell-based
[7] = test system: Crytococcus neoformans; test: Expanded fungus panel, broth macrodilution (MIC/MFC), yeast; type: cell-based; conditions: Cryptococcus neoformans, Crytococcus neoformans isolate H99
[8] = test system: poly dA•dT; test: DNA thermal melting (ΔTm); type: binding
[9] = test system: Candida albicans; test: Antifungal broth macrodilution susceptibility testing (MIC/MFC), yeast; type: cell-based; conditions: for MIC80 / MIC / MFC: Candida albicans; for MIC80: 80% of inoculum inhibited
[10] = test system: other pathogenic fungi; test: Expanded fungus panel, overall; type: cell-based
Experimental: Antifungal Test Organisms. The fungi used in this study for all the compounds in Table 1 included two reference strains C. albicans A39 and Aspergillus fumigatus (strain 168.95).
Medium. Antifungal susceptibility testing was performed with RPMI 1640 medium (Sigma Chemical Co., St. Louis, Mo.) with glutamine, but without sodium bicarbonate and buffered at pH 7.0 with 0.165 M morpholinopropanesulfonic acid.
Antifungal In Vitro Susceptibility Testing. Experiments for determination of MICs of yeasts were performed by the broth macrodilution method according to the recommendations of the National Committee for Clinical Laboratory Standards. See National Committee for Clinical Laboratory Standards. Reference method for broth dilution susceptibility testing of yeasts Document M27-T. Tentative standard, National Committee for Clinical Laboratory Standards, Wayne, Pa., 1995). […] Briefly, this method specifies the use of an inoculum grown at 35° C. and adjusted to a concentration of 0.5×10^3 to 2.5×10^3 CFU/ml, incubation of the culture at 35° C., and reading at 48 h for all yeasts except for C. neoformans, for which the results are interpreted at 72 h. […]
The minimum fungicidal concentration (MFC) was determined by plating 100 μl aliquots from tubes showing complete inhibition of growth on Sabouraud agar plates. The lowest drug concentration that yielded three or fewer colonies was recorded as the MFC. […]

[11] = Aspergillus flavus isolate 107.96
[12] = Aspergillus flavus isolate 141.88
[13] = Aspergillus fumigatus, strain 168.95, read-out: Aspergillus fumigatus MIC
[14] = reference strain C. albicans A39, read-out: C. albicans MFC
[15] = reference strain C. albicans A39, read-out: C. albicans MIC

Structure (SMILES): Cc1ccc(N=Nc2ccc(-c3ccc(-c4ccc(N=Nc5ccc(C)cn5)cc4C)o3)c(C)c2)nc1 [Compound 6j, 2,5-Bis[2-methyl-4-(5-methyl-2-pyridylimino)aminophenyl]furan]
- activity versus Aspergillus flavus, in words [1]: less effective
- MFC [1, 11]: >100 µg/mL
- MIC 80% ([1]; Aspergillus flavus isolate 107.96, 80% of inoculum inhibited): 3.12 µg/mL (≈ 6.41 µM)
- MFC [1, 12]: >100 µg/mL
- MIC 80% ([1]; Aspergillus flavus isolate 141.88, 80% of inoculum inhibited): 3.12 µg/mL (≈ 6.41 µM)
- MIC80 ([1]; Aspergillus flavus isolate 194.99, 80% of inoculum inhibited): 3.12 µg/mL (≈ 6.41 µM)
- MFC ([1]; Aspergillus flavus isolate 194.99, read-out: MFC): > 100 µg/mL
- MIC [1, 11]: 50 µg/mL (≈ 103 µM)
- MIC [1, 12]: 50 µg/mL (≈ 103 µM)
- MIC ([1]; Aspergillus flavus isolate 194.99): 6.25 µg/mL (≈ 12.8 µM)
- activity against Aspergillus fumigatus, in words [2]: less effective
- MFC ([2]; Aspergillus fumigatus isolate 119.00, read-out: MFC): > 100 µg/mL
- MFC ([2]; Aspergillus fumigatus isolate 153.90): >100 µg/mL
- MFC ([2]; Aspergillus fumigatus isolate 165.86): >100 µg/mL
- MFC ([2]; Aspergillus fumigatus isolate 168.95, expanded panel): >100 µg/mL
- MFC ([2]; Aspergillus fumigatus isolate 182.99): >100 µg/mL
- MIC80 ([2]; Aspergillus fumigatus, Aspergillus fumigatus isolate 119.00): 3.12 µg/mL (≈ 6.41 µM)
- MIC ([2]; Aspergillus fumigatus, Aspergillus fumigatus isolate 119.00, 100% of inoculum inhibited, read-out: MIC 100%): 50 µg/mL (≈ 103 µM)
- MIC80 ([2]; Aspergillus fumigatus, Aspergillus fumigatus isolate 153.90): 3.12 µg/mL (≈ 6.41 µM)
- MIC ([2]; Aspergillus fumigatus, Aspergillus fumigatus isolate 153.90, 100% of inoculum inhibited, read-out: MIC 100%): 50 µg/mL (≈ 103 µM)
- MIC80 ([2]; Aspergillus fumigatus, Aspergillus fumigatus isolate 165.86): 50 µg/mL (≈ 103 µM)
- MIC ([2]; Aspergillus fumigatus, Aspergillus fumigatus isolate 165.86, 100% of inoculum inhibited, read-out: MIC 100%): 50 µg/mL (≈ 103 µM)
- MIC80 ([2]; Aspergillus fumigatus, Aspergillus fumigatus isolate 168.95): 50 µg/mL (≈ 103 µM)
- MIC ([2]; Aspergillus fumigatus, Aspergillus fumigatus isolate 168.95, 100% of inoculum inhibited, read-out: MIC 100%): 50 µg/mL (≈ 103 µM)
- MIC80 ([2]; Aspergillus fumigatus, Aspergillus fumigatus isolate 182.99): 3.12 µg/mL (≈ 6.41 µM)
- MIC ([2]; Aspergillus fumigatus, Aspergillus fumigatus isolate 182.99, 100% of inoculum inhibited, read-out: MIC 100%): 50 µg/mL (≈ 103 µM)
- MIC [2, 13]: 10 µg/mL (≈ 20.6 µM)
- MIC [3]: 1 to 2 µg/mL (≈ 2.06 to 4.11 µM)
- DNA Affinities ΔTm (oligo) [4]: 10.8
- activity versus Rhizopus arrhizus, in words [5]: good fungicidal activity
- MFC ([5]; Rhizopus arrhizus isolate 117.89): 1.56 µg/mL (≈ 3.21 µM)
- MIC80 ([5]; Rhizopus arrhizus isolate 117.89, 80% of inoculum inhibited): 0.78 µg/mL (≈ 1.6 µM)
- MIC ([5]; Rhizopus arrhizus isolate 117.89, 100% of inoculum inhibited): 1.56 µg/mL (≈ 3.21 µM)
- activity against Fusarium solani, in words [6]: not very effective
- MFC ([6]; Fusarium solani isolate 152.89): 50 µg/mL (≈ 103 µM)
- MIC80 ([6]; Fusarium solani isolate 152.89, 80% of inoculum inhibited): 3.12 µg/mL (≈ 6.41 µM)
- MIC ([6]; Fusarium solani isolate 152.89, 100% of inoculum inhibited): 50 µg/mL (≈ 103 µM)
- MFC [7]: > 100 µg/mL
- MIC80 ([7]; 80% of inoculum inhibited): 1.56 µg/mL (≈ 3.21 µM)
- MIC ([7]; 100% of inoculum inhibited): 1.56 µg/mL (≈ 3.21 µM)
- DNA Affinities ΔTm (AT) [8]: 24.3
- activity against C. albicans, in words [9]: quite effective
- MIC80 ([9]; Candida albicans isolate 116.98): 1.56 µg/mL (≈ 3.21 µM)
- MIC ([9]; Candida albicans isolate 116.98, 100% of inoculum inhibited, read-out: MIC 100%): 1.56 µg/mL (≈ 3.21 µM)
- MFC ([9]; Candida albicans isolate 116.98, read-out: MFC): > 100 µg/mL
- MIC80 ([9]; Candida albicans isolate 117.00): 0.78 µg/mL (≈ 1.6 µM)
- MIC ([9]; Candida albicans isolate 117.00, 100% of inoculum inhibited, read-out: MIC 100%): 3.12 µg/mL (≈ 6.41 µM)
- MFC ([9]; Candida albicans isolate 117.00, read-out: MFC): 25 µg/mL (≈ 51.4 µM)
- MIC80 ([9]; Candida albicans isolate 126.97): 1.56 µg/mL (≈ 3.21 µM)
- MIC ([9]; Candida albicans isolate 126.97, 100% of inoculum inhibited, read-out: MIC 100%): 3.12 µg/mL (≈ 6.41 µM)
- MFC ([9]; Candida albicans isolate 126.97, read-out: MFC): 3.12 µg/mL (≈ 6.41 µM)
- MIC80 ([9]; Candida albicans isolate 149.97): 0.78 µg/mL (≈ 1.6 µM)
- MIC ([9]; Candida albicans isolate 149.97, 100% of inoculum inhibited, read-out: MIC 100%): 1.56 µg/mL (≈ 3.21 µM)
- MFC ([9]; Candida albicans isolate 149.97, read-out: MFC): 6.25 µg/mL (≈ 12.8 µM)
- MIC80 ([9]; Candida albicans isolate 156.97): 1.56 µg/mL (≈ 3.21 µM)
- MIC ([9]; Candida albicans isolate 156.97, 100% of inoculum inhibited, read-out: MIC 100%): 3.15 µg/mL (≈ 6.47 µM)
- MFC ([9]; Candida albicans isolate 156.97, read-out: MFC): > 100 µg/mL
- MIC80 ([9]; Candida albicans isolate 159.95): 0.79 µg/mL (≈ 1.62 µM)
- MIC ([9]; Candida albicans isolate 159.95, 100% of inoculum inhibited, read-out: MIC 100%): 1.58 µg/mL (≈ 3.25 µM)
- MFC ([9]; Candida albicans isolate 159.95, read-out: MFC): 3.12 µg/mL (≈ 6.41 µM)
- MIC80 ([9]; Candida albicans isolate A39): 1.56 µg/mL (≈ 3.21 µM)
- MIC ([9]; Candida albicans isolate A39, 100% of inoculum inhibited, read-out: MIC 100%): 1.56 µg/mL (≈ 3.21 µM)
- MFC ([9]; Candida albicans isolate A39, expanded panel, read-out: MFC): 25 µg/mL (≈ 51.4 µM)
- MIC ([9]; read-out: C. albicans MIC): ≤ 1 µg/mL
- MFC [9, 14]: 10 µg/mL (≈ 20.6 µM)
- MIC [9, 15]: ≤ 2 µg/mL

Structure (SMILES): COc1cc(N=Nc2ccccn2)ccc1-c1ccc(-c2ccc(N=Nc3ccccn3)cc2OC)o1 [Compound 6k, 2,5-Bis[2-methoxy-4-(2-pyridylimino)aminophenyl]furan]
- activity against Aspergillus fumigatus, in words [2]: fungicidal
- MIC ([2]; Aspergillus fumigatus, read-out: Aspergillus fumigatus MIC): ≤ 1 µg/mL
- MFC ([2]; Aspergillus fumigatus, strain 168.95, read-out: Aspergillus fumigatus MFC): ≤ 1 µg/mL
- MIC [2, 13]: 1 µg/mL (≈ 2.04 µM)
- MIC [3]: 1 to 2 µg/mL (≈ 2.04 to 4.08 µM)
- activity in the expanded fungus panel, in words [10]: did not show significant activity
- DNA Affinities ΔTm (oligo) [4]: 7.8
- DNA Affinities ΔTm (AT) [8]: 19.0
- activity against C. albicans, in words [9]: fungicidal
- MIC ([9]; read-out: C. albicans MIC): ≤ 1 µg/mL
- MFC [9, 14]: ≤ 1 µg/mL
- MIC [9, 15]: ≤ 2 µg/mL
